# Values of other authors, collected in US8759098B2, “Method for cloning pluripotent stem cells” (Boston Biomedical Research Institute, Inc., priority 2009, dated 2014).
# System: human adult tissue
# Details: used singly and in combination; Lin et al. 2009; cited from earlier work
smiles,measurement,value
O=C(NOC[C@H](O)CO)c1ccc(F)c(F)c1Nc1ccc(I)cc1F [PD0325901],efficiency of creating stem cells from human adult tissue,dramatically improve the efficiency
NC(=O)c1ccc(-c2nc(-c3ccccn3)c(-c3ccc4c(c3)OCO4)[nH]2)cc1 [SB43142],efficiency of creating stem cells from human adult tissue,dramatically improve the efficiency
